Experimental data: PubChem BioAssay (NCI)
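Growth conditions: 96-well plates. Treatment: test compound, 48 hours, 5 concentrations. Analysis: linear interpolation between bracketing concentrations; unreached endpoints set to highest concentration. Here, GI50 denotes the concentration required for 50% inhibition of growth. TGI: total growth inhibition.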

How the values were obtained:
Assay in all cases: growth of human tumour cells (NCI), 48 h
[1] = test system: SNB-75 CNS
[2] = test system: EKVX NSCLC
[3] = test system: U251 CNS
[4] = test system: NCI-H226 lung
[5] = test system: MCF7 breast
[6] = test system: HL-60(TB) leukemia
[7] = test system: SK-OV-3 ovarian
[8] = test system: 786-0 renal
[9] = test system: LOX IMVI melanoma
[10] = test system: CAKI-1 renal
[11] = test system: HOP-62 NSCLC
[12] = test system: SK-MEL-28 melanoma
[13] = test system: UO-31 renal
[14] = test system: A498 renal
[15] = test system: UACC-62 melanoma
[16] = test system: MDA-MB-435
[17] = test system: OVCAR-4 ovarian
[18] = test system: SW-620 colon
[19] = test system: SNB-19 CNS
[20] = test system: HCT-15 colon
[21] = test system: HCC-2998 colon
[22] = test system: IGROV1 ovarian
[23] = test system: HCT-116 colon
[24] = test system: TK-10 renal
[25] = test system: SK-MEL-2 melanoma
[26] = test system: M14 melanoma
[27] = test system: CCRF-CEM leukemia
[28] = test system: HS 578T breast
[29] = test system: A549 NSCLC
[30] = test system: MOLT-4 leukemia
[31] = test system: SK-MEL-5 melanoma
[32] = test system: SN12C renal
[33] = test system: UACC-257 melanoma
[34] = test system: NCI/ADR-RES ovarian
[35] = test system: COLO 205 colon
[36] = test system: T-47D breast
[37] = test system: RPMI-8226 leukemia
[38] = test system: BT-549 breast
[39] = test system: OVCAR-5 ovarian
[40] = test system: NCI-H460 lung
[41] = test system: OVCAR-3 ovarian
[42] = test system: MDA-MB-231 breast
[43] = test system: PC-3 prostate
[44] = test system: KM12 colon
[45] = test system: K-562 leukemia
[46] = test system: ACHN renal
[47] = test system: NCI-H522 lung
[48] = test system: NCI-H23 lung
[49] = test system: HOP-92 NSCLC
[50] = test system: RXF 393 renal
[51] = test system: DU-145 prostate
[52] = test system: SF-295 CNS
[53] = test system: HT29 colon
[54] = test system: MALME-3M melanoma
[55] = test system: SF-539 CNS
[56] = test system: SF-268 CNS
[57] = test system: OVCAR-8 ovarian
[58] = test system: SR leukemia

SMILES: CSc1ccccc1C#C/C=C\C#Cc1ccccc1N1CCCC1=O
- GI50 [1]: > 10.8 µM
- TGI [1]: > 50 µM
- GI50 [2]: > 10.3 µM
- TGI [2]: > 50 µM
- GI50 [3]: > 11 µM
- TGI [3]: > 50 µM
- GI50 [4]: > 11.4 µM
- TGI [4]: > 50 µM
- TGI [5]: > 50 µM
- GI50 [6]: 2.43 µM
- TGI [7]: > 50 µM
- GI50 [8]: > 22 µM
- TGI [8]: > 50 µM
- TGI [9]: > 50 µM
- GI50 [10]: > 10.3 µM
- TGI [10]: > 50 µM
- GI50 [11]: > 15.8 µM
- TGI [11]: > 50 µM
- TGI [12]: > 50 µM
- TGI [13]: > 50 µM
- GI50 [14]: > 50 µM
- TGI [14]: > 50 µM
- TGI [15]: > 50 µM
- TGI [16]: > 13.9 µM
- GI50 [17]: > 22.1 µM
- TGI [17]: > 50 µM
- TGI [18]: > 17.6 µM
- GI50 [19]: > 11 µM
- TGI [19]: > 50 µM
- TGI [20]: > 50 µM
- TGI [21]: > 33.8 µM
- GI50 [22]: 14.9 µM
- TGI [22]: > 50 µM
- TGI [23]: > 50 µM
- GI50 [24]: > 24.6 µM
- TGI [24]: > 50 µM
- TGI [25]: > 50 µM
- GI50 [26]: > 12.3 µM
- TGI [26]: > 50 µM
- TGI [27]: > 50 µM
- GI50 [28]: > 9.95 µM
- TGI [28]: > 50 µM
- GI50 [29]: > 11 µM
- TGI [29]: > 50 µM
- TGI [30]: > 17.6 µM
- TGI [31]: > 18.3 µM
- GI50 [32]: > 26.2 µM
- TGI [32]: > 50 µM
- GI50 [33]: > 12.5 µM
- TGI [33]: > 50 µM
- TGI [34]: > 19.9 µM
- TGI [35]: > 12.6 µM
- TGI [36]: > 20.3 µM
- GI50 [37]: 3.34 µM
- TGI [38]: > 45.4 µM
- GI50 [39]: > 24.2 µM
- TGI [39]: > 50 µM
- TGI [40]: > 50 µM
- TGI [41]: > 14 µM
- TGI [42]: > 50 µM
- GI50 [43]: > 50 µM
- TGI [43]: > 50 µM
- TGI [44]: > 17.6 µM
- TGI [45]: > 12.2 µM
- GI50 [46]: > 22.9 µM
- TGI [46]: > 50 µM
- TGI [47]: > 50 µM
- GI50 [48]: > 12.7 µM
- TGI [48]: > 50 µM
- TGI [49]: > 50 µM
- GI50 [50]: 2.91 µM
- TGI [50]: 25.8 µM
- GI50 [51]: > 22.5 µM
- TGI [51]: > 50 µM
- GI50 [52]: > 50 µM
- TGI [52]: > 50 µM
- GI50 [53]: > 10.4 µM
- TGI [53]: > 50 µM
- TGI [54]: > 50 µM
- GI50 [55]: > 11.4 µM
- TGI [55]: > 50 µM
- GI50 [56]: > 10.2 µM
- TGI [56]: > 50 µM
- GI50 [57]: > 13.1 µM
- TGI [57]: > 50 µM

SMILES: COc1ccc2c(c1)C(=O)/C(=C/c1ccc(OCC(=O)Nc3nccs3)cc1)O2
- GI50 [1]: 0.629 µM
- TGI [1]: 9.38 µM
- GI50 [2]: 2.04 µM
- GI50 [3]: 0.598 µM
- TGI [3]: 22.4 µM
- GI50 [4]: 12.8 µM
- TGI [4]: 34.8 µM
- GI50 [5]: 5.75 µM
- TGI [5]: 18 µM
- GI50 [6]: 0.187 µM
- TGI [6]: 0.413 µM
- GI50 [7]: 17.4 µM
- TGI [7]: > 95.4 µM
- GI50 [8]: 0.237 µM
- TGI [8]: 0.563 µM
- GI50 [9]: 0.057 µM
- TGI [9]: 0.108 µM
- GI50 [10]: 0.392 µM
- GI50 [11]: 0.491 µM
- TGI [11]: 26 µM
- GI50 [12]: 12.7 µM
- TGI [12]: 26.3 µM
- GI50 [13]: 0.215 µM
- TGI [13]: 0.374 µM
- GI50 [14]: 7.99 µM
- TGI [14]: 26.2 µM
- GI50 [15]: 9.71 µM
- TGI [15]: 23.2 µM
- GI50 [16]: 10.7 µM
- TGI [16]: 46.8 µM
- GI50 [17]: 2.26 µM
- TGI [17]: 14.5 µM
- GI50 [18]: 2.88 µM
- TGI [18]: 10.2 µM
- GI50 [19]: 20.4 µM
- TGI [19]: > 65.7 µM
- GI50 [20]: 4.51 µM
- TGI [20]: 17.8 µM
- GI50 [21]: 15.2 µM
- TGI [21]: 31.7 µM
- GI50 [22]: 0.0169 µM
- TGI [22]: 0.036 µM
- GI50 [23]: 2.75 µM
- TGI [23]: 10.7 µM
- GI50 [24]: 3.39 µM
- TGI [24]: 17.8 µM
- GI50 [25]: 0.231 µM
- TGI [25]: 0.588 µM
- GI50 [26]: 3.03 µM
- TGI [26]: 13.5 µM
- GI50 [27]: 0.183 µM
- GI50 [28]: 9.23 µM
- TGI [28]: > 63.8 µM
- GI50 [29]: 1.76 µM
- TGI [29]: 16 µM
- GI50 [30]: 2.09 µM
- TGI [30]: > 100 µM
- GI50 [31]: 2.93 µM
- TGI [31]: 16.3 µM
- GI50 [32]: 2.51 µM
- TGI [32]: 18.9 µM
- GI50 [33]: 18 µM
- TGI [33]: 36.6 µM
- GI50 [34]: 27.3 µM
- TGI [34]: > 100 µM
- GI50 [35]: 0.979 µM
- TGI [35]: 5.09 µM
- GI50 [36]: 7.05 µM
- TGI [36]: 31.9 µM
- GI50 [37]: 0.439 µM
- TGI [37]: 4.56 µM
- GI50 [38]: 3.86 µM
- TGI [38]: 15.3 µM
- GI50 [39]: 1.79 µM
- TGI [39]: 10.2 µM
- GI50 [40]: 15.5 µM
- TGI [40]: 34.4 µM
- GI50 [41]: 0.204 µM
- TGI [41]: 0.398 µM
- GI50 [42]: 0.748 µM
- TGI [42]: 5.78 µM
- GI50 [43]: 0.264 µM
- TGI [43]: 2.17 µM
- GI50 [44]: 0.431 µM
- TGI [44]: 18.8 µM
- GI50 [45]: 1.84 µM
- GI50 [46]: 2.67 µM
- TGI [46]: 20.5 µM
- GI50 [47]: 0.191 µM
- TGI [47]: 0.393 µM
- GI50 [48]: 0.711 µM
- TGI [48]: 19.9 µM
- GI50 [49]: 0.161 µM
- TGI [49]: 0.369 µM
- GI50 [51]: 0.504 µM
- TGI [51]: 5.73 µM
- GI50 [58]: 0.27 µM
- TGI [58]: 1.15 µM
- GI50 [53]: 5.31 µM
- TGI [53]: 29.2 µM
- GI50 [54]: 0.858 µM
- TGI [54]: 4.15 µM
- GI50 [55]: 0.184 µM
- TGI [55]: 0.361 µM
- GI50 [57]: 17.2 µM
- TGI [57]: > 60.5 µM
